We go through one compound from patent US20260144769A1, “4-PHENYLBUTYRATE RESTORED GABA UPTAKE AND REDUCED SEIZURES IN SLC6A1 VARIANT-MEDIATED DISORDERS” (Vanderbilt University, priority 2022, published 2026).

SMILES strings stand for the structures.

Experiment [1] has as its system wildtype GAT-1 + GAT-1 S295L. As to the kind of experiment: 3H GABA uptake, HEK293T, mixture of wildtype and mutant cDNAs ("heterozygous"). It counts as cell-based, rat. Conditions: wildtype:S295L cDNAs 1:1; PBA 2 mM, 24 hrs. Here is the method: (§1) GABA uptake activity was measured by the high-throughput 3H radio-labeling GABA uptake on a liquid scintillator with QuantaSmart. […] HEK293T cells were transfected with the wildtype or the mutant GAT-1^YFP cDNAs alone for 48 hr. […] HEK293T cells were transfected with the wildtype GAT-1^YFP alone or in mixture of the wildtype or the mutant cDNAs for 48 hr. In the mixed condition, the ratio of the wildtype GAT-1 with pcDNA or the mutant cDNAs are 1:1 with the total cDNA amount of 0.5 μg. […] Both wt and the mutant were normalized to its own DMSO treated conditions. 966 stands for the wildtype treated with CI-966 (50 μM) while 711 stands for NNC-711 (35 μM). (N=4-7 different transfections. In FIG. 4A and FIG. 4B, *P<0.05, **P<0.01, ***p<0.001 vs. wt 0. In FIG. C and FIG. 4D, *P<0.05, **P<0.01, ***p<0.001 vs. its own DMSO treated. In FIG. 4C, ns stands for no significance. One-way analysis of variance (ANOVA) and Newman-Keuls test. Values were expressed as mean±S.E.M.
(§2) The plasmid cDNA encoding enhanced yellow fluorescent protein (EYFP)-tagged rat GAT-1 has been previously described. The coding region of rGAT-1 was inserted into pEYFP-C1 (Clontech, Palo Alto, CA). QuikChange Site-directed Mutagenesis kit was utilized to introduce the GAT-1 variants into a wildtype GAT-1 plasmid. The product was then amplified via polymerase chain reaction, transformed using DH5a competent cells, and plated. A clone was chosen and grown overnight. All the GAT-1 variants were confirmed by DNA sequencing. Both the wildtype and the variant cDNAs were prepared with Qiagen Maxiprep kit.
(§3) Human embryonic kidney cells were cultured as monolayers in 100 mm^2 dishes. Cells were cultured in Dulbecco's Modified Eagle's Medium supplemented with 10% FBS and 1% penicillin/streptomycin in 37° C. in 5% CO2/95% air. Cells were maintained in culture medium until appropriate confluency for experimentation.
(§4) Briefly, cells were cultured in […] dishes for 3 days before the GABA uptake experiment in DMEM with 10% fetal bovine serum and 1% penicillin/streptomycin. The cells were then transfected with equal amounts of the wildtype or the mutant GAT-1 cDNAs (1 μg) for each condition at 24 hrs or 48 hrs after plating. GABA uptake assay was carried out 48 hrs after transfection. The cells were incubated with preincubation solution for 15 min and then incubated with preincubation solution containing 1 μci/mL 3H GABA and 10 μM unlabeled GABA for 30 min at room temperature. After washing, the cells were lysed with 0.25 N NaOH for 1 hr. Glacial acetic acid was added, and lysates were then determined on a liquid scintillator with QuantaSmart. The flux of GABA (pmol/μg/min) was averaged with at least triplets for each condition at each transfection. The average counting was taken as n=1. The untransfected condition was taken as a baseline that was subtracted from both the wildtype and the mutant conditions. The pmol/μg/min in the mutant was then normalized to the wildtype from each experiment, which was arbitrarily taken as 100%. The protocols for GABA reuptake assay in cultured mouse astrocytes, neuron or iPSC derived cells were modified from the GABA uptake protocol on HEK 293T cells. GAT-1 inhibitors CL-966 and NNC-711 were applied each time to make sure the radioactive counts were specific.
(§5) The working solution was stored at 4° C.

Experiment [2] deals with wildtype GAT-1 + GAT-1 V125M. The experiment is described as above. Particulars: wildtype:V125M cDNAs 1:1; PBA 2 mM, 24 hrs. It counts as cell-based, rat. The protocol:
as §1, §2, §3, §4, §5

The test system of experiment [3] is wildtype GAT-1 + GAT-1 L460R. The experiment is described as above. Conditions: wildtype:L460R cDNAs 1:1; PBA 2 mM, 24 hrs. It counts as cell-based, rat. Here is the method: as §1, §2, §3, §4, §5
The test system of experiment [4] is wildtype GAT-1 + GAT-1 W495X. The experiment is described as above. It counts as cell-based, rat. Conditions: wildtype:W495X cDNAs 1:1; PBA 2 mM, 24 hrs. Here is the method:
as §1, §2, §3, §4, §5

For the next experiment, the target named is T1, GAT-1 A288V (Rattus norvegicus, UniProt P23978, A288V).
T1 construct: The coding region of rGAT-1 was inserted into pEYFP-C1 (Clontech, Palo Alto, CA); expressed in transfected cells; host or cells: HEK293T cells (A4); astrocytes from corrected human iPSCs (A24)
The experiment in a line: 3H GABA uptake, HEK293T, mutant cDNA alone ("homozygous"). Particulars: PBA 2 mM, 24 hrs. It counts as cell-based. Here is the method:
as §1, §2, §3, §4, §5

For another experiment, the target named is T2, GAT-1 G326R (Rattus norvegicus, UniProt P23978, G362R).
T2 construct: The coding region of rGAT-1 was inserted into pEYFP-C1 (Clontech, Palo Alto, CA); expressed in transfected cells; host or cells: HEK293T cells
The description is as above. It counts as cell-based. Conditions: PBA 2 mM, 24 hrs. The protocol: as §1, §2, §3, §4, §5

A further experiment concerns the target T3, GAT-1 S295L (Rattus norvegicus, UniProt P23978, S295L).
T3 construct: The coding region of rGAT-1 was inserted into pEYFP-C1 (Clontech, Palo Alto, CA); expressed in transfected cells; host or cells: HEK293T cells (A5); astrocytes from corrected human iPSCs (A25)
Described as above. It counts as cell-based. Particulars: PBA 2 mM, 24 hrs. Here is the method:
as §1, §2, §3, §4, §5

For another experiment, the target named is T4, GAT-1 W495X (Rattus norvegicus, UniProt P23978).
T4 construct: expressed in transfected cells; host or cells: HEK293T cells
The experiment is described as above. Particulars: PBA 2 mM, 24 hrs. It counts as cell-based. Here is the method:
as §1, §2, §3, §4, §5

The target in a further experiment is T5, GAT-1 V125M (Rattus norvegicus, UniProt P23978, V125M).
T5 construct: The coding region of rGAT-1 was inserted into pEYFP-C1 (Clontech, Palo Alto, CA); expressed in transfected cells; host or cells: HEK293T cells (A3); astrocytes from corrected human iPSCs (A23)
The experiment is described as above. Conditions: PBA 2 mM, 24 hrs. It counts as cell-based. The protocol: as §1, §2, §3, §4, §5

A further experiment concerns the target T6, GAT-1 D410E (Rattus norvegicus, UniProt P23978, D410E).
T6 construct: The coding region of rGAT-1 was inserted into pEYFP-C1 (Clontech, Palo Alto, CA); expressed in transfected cells; host or cells: HEK293T cells (A7); astrocytes from corrected human iPSCs (A27)
The description is as above. It counts as cell-based. Conditions: PBA 2 mM, 24 hrs. Here is the method:
as §1, §2, §3, §4, §5

The target in another experiment is GAT-1 L460R (Rattus norvegicus, UniProt P23978, L460R). The experiment is described as above. It counts as cell-based. Also on record: The coding region of rGAT-1 was inserted into pEYFP-C1 (Clontech, Palo Alto, CA); expressed in transfected cells; host or cells: HEK293T cells. Conditions: PBA 2 mM, 24 hrs. Here is the method:
as §1
The plasmid cDNA encoding enhanced yellow fluorescent protein (EYFP)-tagged rat GAT-1 has been previously described. […]
Briefly, cells were cultured in […] dishes for 3 days before the GABA uptake experiment in DMEM with 10% fetal bovine serum and 1% penicillin/streptomycin. […] Glacial acetic acid was added, and lysates were then determined on a liquid scintillator with QuantaSmart. […]

Consider `O=C(O)CCCc1ccccc1` [PBA, 4-phenylbutyric acid], for which the “GABA uptake normalized to its own DMSO treated condition” value was determined as 1.318±0.062 in [1]; 1.33±0.05 in [2]; 1.214±0.037 in experiment [3]; 1.305±0.0296 in experiment [4]; 1.22±0.063 at GAT-1 A288V; 1.185±0.065 at GAT-1 G326R. The “GABA uptake normalized to its own DMSO treated condition” value at GAT-1 S295L is listed as 1.386±0.058; on GAT-1 W495X it was 1.323±0.054; on GAT-1 V125M it was 1.378±0.056; at GAT-1 D410E, 1.236±0.074; on GAT-1 L460R, 1.14±0.07.
